# According to patent US20230053152A1, “Novel Quercetin Redox Derivative And Use Thereof As BET Inhibitor” (Benobio Co., Ltd., priority 2019, published 2023):
# Legend:
# [1] = molecular target: T1, BRD2 (BD1) (Homo sapiens, UniProt P25440); assay: AlphaScreen binding inhibition of GST-BRD2 (BD1) and tetraacetylated histone H4 peptide; settings: for IC50: AlphaScreen, acetyl-histone H4 peptide
# T1 construct: 100 nM GST-BRD2 (BD1, BD2, BD1+BD2)
# [2] = molecular target: T2, BRD2 (BD1 + BD2) (Homo sapiens, UniProt P25440); assay: AlphaScreen binding inhibition of GST-BRD2 (BD1+BD2) and tetraacetylated histone H4 peptide
# T2 construct: 100 nM GST-BRD2 (BD1, BD2, BD1+BD2)
# [3] = molecular target: T3, BRD3 (BD1 + BD2) (Homo sapiens, UniProt Q15059); assay: Binding inhibition of BRD3 (BD1+BD2), same manner as Test Example 1; settings: AlphaScreen, acetyl-histone H4 peptide
# T3 construct: on the BRD3 (BD1, BD2, BD1+BD2) protein; GST
# [4] = molecular target: T4, BRD4 (BD1 + BD2) (Homo sapiens, UniProt O60885); assay: Binding inhibition of BRD4 (BD1+BD2), same manner as Test Example 1; settings: AlphaScreen, acetyl-histone H4 peptide
# T4 construct: on the BRD4 (BD1, BD2, BD1+BD2) protein; GST
# [5] = molecular target: T5, BRD4 (BD1) (Homo sapiens, UniProt O60885); assay: Binding inhibition of BRD4 (BD1), same manner as Test Example 1; settings: AlphaScreen, acetyl-histone H4 peptide
# T5 construct: on the BRD4 (BD1, BD2, BD1+BD2) protein; GST
# [6] = molecular target: T6, BRD2 (BD2) (Homo sapiens, UniProt P25440); assay: AlphaScreen binding inhibition of GST-BRD2 (BD2) and tetraacetylated histone H4 peptide; settings: acetyl-histone H4 peptide
# T6 construct: 100 nM GST-BRD2 (BD1, BD2, BD1+BD2)
# [7] = molecular target: T7, BRD3 (BD1) (Homo sapiens, UniProt Q15059); assay: Binding inhibition of BRD3 (BD1), same manner as Test Example 1; settings: AlphaScreen, acetyl-histone H4 peptide
# T7 construct: on the BRD3 (BD1, BD2, BD1+BD2) protein; GST
# [8] = molecular target: T8, BRD3 (BD2) (Homo sapiens, UniProt Q15059); assay: Binding inhibition of BRD3 (BD2), same manner as Test Example 1; settings: AlphaScreen, acetyl-histone H4 peptide
# T8 construct: on the BRD3 (BD1, BD2, BD1+BD2) protein; GST
# T8 sequence (Q15059 306-415 limits assumed): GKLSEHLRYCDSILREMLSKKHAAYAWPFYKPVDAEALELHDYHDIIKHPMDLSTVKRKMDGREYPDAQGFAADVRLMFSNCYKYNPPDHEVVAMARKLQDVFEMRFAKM
# T6 sequence (P25440 344-453 limits assumed): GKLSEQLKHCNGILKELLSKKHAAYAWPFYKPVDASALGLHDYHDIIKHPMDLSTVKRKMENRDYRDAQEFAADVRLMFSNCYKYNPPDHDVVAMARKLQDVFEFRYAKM
# T7 sequence (Q15059 34-140 limits assumed): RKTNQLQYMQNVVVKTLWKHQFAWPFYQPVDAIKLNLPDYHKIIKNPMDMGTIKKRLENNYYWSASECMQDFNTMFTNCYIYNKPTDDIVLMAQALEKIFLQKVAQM
# T3 sequence (Q15059 34-415 limits assumed): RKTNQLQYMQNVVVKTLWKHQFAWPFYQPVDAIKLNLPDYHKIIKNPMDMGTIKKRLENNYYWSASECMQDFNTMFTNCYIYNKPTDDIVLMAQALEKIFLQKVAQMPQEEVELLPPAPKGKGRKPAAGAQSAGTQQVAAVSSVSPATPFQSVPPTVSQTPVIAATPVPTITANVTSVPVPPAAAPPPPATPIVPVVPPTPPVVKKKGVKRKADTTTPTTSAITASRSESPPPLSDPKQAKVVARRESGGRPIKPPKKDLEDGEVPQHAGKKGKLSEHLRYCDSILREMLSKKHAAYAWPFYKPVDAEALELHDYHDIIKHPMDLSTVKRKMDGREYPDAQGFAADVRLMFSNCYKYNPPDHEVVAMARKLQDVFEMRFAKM
# T1 sequence (P25440 74-180 limits assumed): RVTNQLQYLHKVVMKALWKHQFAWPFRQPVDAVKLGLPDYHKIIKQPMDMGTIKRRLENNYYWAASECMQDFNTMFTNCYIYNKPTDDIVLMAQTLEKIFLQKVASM
# T2 sequence (P25440 74-453 limits assumed): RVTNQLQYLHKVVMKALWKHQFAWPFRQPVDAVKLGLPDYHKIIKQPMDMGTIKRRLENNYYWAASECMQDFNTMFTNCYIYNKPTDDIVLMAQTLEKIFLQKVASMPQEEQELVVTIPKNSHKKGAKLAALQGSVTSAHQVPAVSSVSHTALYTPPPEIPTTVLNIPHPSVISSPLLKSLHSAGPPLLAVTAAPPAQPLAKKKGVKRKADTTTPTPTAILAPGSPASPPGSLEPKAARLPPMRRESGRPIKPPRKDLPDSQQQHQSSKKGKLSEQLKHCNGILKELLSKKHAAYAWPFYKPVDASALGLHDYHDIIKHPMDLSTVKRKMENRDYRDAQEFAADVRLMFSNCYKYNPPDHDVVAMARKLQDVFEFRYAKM
Compound,IC50 [1],IC50 [7],also measured
"O=c1c(O)c(-c2ccc(O)c(O)c2)oc2cccc(O)c12 [BBC0104, 2-(3,4-dihydroxyphenyl)-3,5-dihydroxy-chromen-4-one]",8.52 µM,–,–
"O=c1c(O)c(-c2ccc(O)c(O)c2)oc2cc(O)ccc12 [BBC0105, 2-(3,4-dihydroxyphenyl)-3,7-dihydroxy-chromen-4-one]",8.88 µM,–,–
"O=c1c(O)c(-c2ccc3[nH]cnc3c2)oc2cc(O)cc(O)c12 [BBC0109, 2-(1H-benzodiimidazol-5-yl)-3,5,7-trihydroxy-4H-chromen-4-one]",8.63 µM,–,"IC50 ([2]; AlphaScreen, acetyl-histone H4 peptide): 9.7 µM; IC50 value of BRD2 (BD1+BD2) as compared to the compound of Comparative Example 1 ([2]; relative to RVX-208): about 30%; IC50 value of BRD2 (BD1) as compared to the compound of Comparative Example 1 ([1]; relative to RVX-208): about 30%; IC50 [3]: 20.8 µM; IC50 [4]: 15.6 µM"
"O=c1[nH]c2ccc(-c3oc4cc(O)cc(O)c4c(=O)c3O)cc2[nH]1 [BBC0110, 5-(3,5,7-trihydroxy-4-oxo-chromen-2-yl)-1,3-dihydrobenzimidazol-2-one]",9.06 µM,–,IC50 [3]: 20.1 µM; IC50 [5]: 15.5 µM; IC50 [4]: 38.6 µM
"O=c1[nH]c2ccc(-c3oc4cc(O)cc(O)c4c(=O)c3O)cc2o1 [BBC0113, 6-(3,5,7-trihydroxy-4-oxo-chromen-2-yl)-3H-1,3-benzoxazol-2-one]",12.2 µM,17.1 µM,IC50 [6]: 5.11 µM
"O=c1c(O)c(-c2ccc3[nH]ccc3c2)oc2cc(O)cc(O)c12 [BBC0114, 3,5,7-trihydroxy-2-(1H-indol-5-yl)chromen-4-one]",4.14 µM,7.98 µM,IC50 [3]: 51.3 µM
"O=c1c(O)c(-c2ccc3cc[nH]c3c2)oc2cc(O)cc(O)c12 [BBC0115, 3,5,7-trihydroxy-2-(1H-indol-6-yl)chromen-4-one]",5.24 µM,7.18 µM,IC50 [3]: 86 µM
"COc1cc(OC)c2c(=O)[nH]c(-c3cc(C)c(OCCO)c(C)c3)cc2c1 [BBC0204, reference compound]",–,–,IC50 [5]: 35.1 µM; IC50 [4]: 97.2 µM
"COc1cc(OC)c2[nH]c(-c3cc(C)c(OCCO)c(C)c3)nc2c1 [BBC0206, reference compound]",–,–,IC50 [5]: > 50 µM; IC50 [4]: > 20 µM

# Second part, led by results:
IC50 [1],IC50 [7],Compound,also measured
16.9 µM,–,"O=c1c(O)c(-c2ccc(OC3COC3)c(O)c2)oc2cc(O)cc(O)c12 [BBC0301, 3,5,7-trihydroxy-2-[13-hydroxy-4-(oxetan-3-yloxy)phenyl]chromen-4-one]",IC50 [3]: 29.4 µM; IC50 [4]: 30.3 µM
2.4 µM,–,"O=c1c(O)c(-c2ccc(OC3COC3)cc2)oc2cc(O)cc(O)c12 [BBC0302, 3,5,7-trihydroxy-2-[4-(oxetan-3-yloxy)phenyl]chromen-4-one]",–
8.35 µM,3.18 µM,"O=c1c(O)c(-c2ccc(O)c(OC3COC3)c2)oc2cc(O)cc(O)c12 [BBC0303, 3,5,7-trihydroxy-2-[4-hydroxy-3-(oxetan-3-yloxy)phenyl]chromen-4-one]",IC50 [3]: 95.6 µM
6.55 µM,3 µM,"Cc1cc(-c2oc3cc(O)cc(O)c3c(=O)c2O)cc(O)c1OC1COC1 [BBC0305, 3,5,7-trihydroxy-2-[3-hydroxy-5-methyl-4-(oxetan-3-yloxy)phenyl]chromen-4-one]",–
2.71 µM,1.41 µM,"Cc1cc(-c2oc3cc(O)cc(O)c3c(=O)c2O)cc(C)c1OC1COC1 [BBC0306, 2-[3,5-dimethyl-4-(oxetan-3-yloxy)phenyl]-3,5,7-trihydroxy-chromen-4-one]",IC50 [8]: 1.34 µM
18.5 µM,9.29 µM,Cc1cc(-c2oc3cc(O)cc(O)c3c(=O)c2O)cc(OC2COC2)c1O [BBC0307],IC50 [4]: 87.3 µM
7.03 µM,1.46 µM,O=c1c(O)c(-c2ccc3c(c2)CCCO3)oc2cc(O)cc(O)c12 [BBC0309],–
10.1 µM,3.26 µM,"O=c1c(O)c(-c2ccc3occc3c2)oc2cc(O)cc(O)c12 [BBC0310, 2-(benzofuran-5-yl)-3,5,7-trihydroxy-chromen-4-one]",–
5.85 µM,7.2 µM,"O=c1c(O)c(-c2ccc3c(c2)CCO3)oc2cc(O)cc(O)c12 [BBC0311, 2-(2,3-dihydrobenzofuran-5-yl)-3,5,7-trihydroxy-chromen-4-one]",IC50 [6]: 3.79 µM
3.69 µM,2.64 µM,"O=c1c(O)c(-c2ccc3c(c2)OCC3)oc2cc(O)cc(O)c12 [BBC0312, 2-(2,3-dihydrobenzofuran-6-yl)-3,5,7-trihydroxy-chromen-4-one]",–
4.63 µM,1.9 µM,"O=c1c(O)c(-c2ccc3ccoc3c2)oc2cc(O)cc(O)c12 [BBC0313, 2-(benzofuran-6-yl)-3,5,7-trihydroxy-chromen-4-one]",IC50 [6]: 0.499 µM
–,11.1 µM,"COc1cc(OC)c2c(=O)[nH]c(-c3cc(C)c4c(c3)CCO4)nc2c1 [BBC0406, 5,7-dimethoxy-2-(7-methyl-2,3-dihydrobenzofuran-5-yl)-3H-quinazolin-4-one]",–
